What is called % Inhibition is how much of the control response was suppressed. Read a low % Inhibition as a response near the control. For orientation: IC50 means the concentration that gives 50% inhibition. Lower therefore signals inhibition by little substance.

The first experiment relates to purified human Hsp90. Kind of experiment: Binding Assay: fluorescence polarization with BODIPY-labeled geldanamycin. The conditions noted are these: 5 μM compound, BODIPY-GM 10 nM, Hsp90 30 nM. An outline of the steps:
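Compounds in 2% DMSO final compete with 10 nM BODIPY-GM for 30 nM purified human Hsp90, incubated overnight at room temperature in pH 7.3 HEPES buffer containing Na2MoO4 and DTT. Polarization (mP, ex/em 485/530) normalized to DMSO gives percent inhibition; autofluorescence-confounded data excluded.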
(Polarisation of emitted light reports the rotation of a fluorescent probe.)
For `COc1ccc(OC)c(Sc2nc3c(N)ncn(CCc4ccc(F)cc4Cl)c-3n2)c1` [Example 140, 3-[2-(2-chloro-4-fluoro-phenyl)-ethyl]-8-(2,5-dimethoxy-phenylsulfanyl)-3H-purin-6-ylamine], the “% Inhibition at 5 μM Compound Concentration” value turned out to be 0%. Still for that read-out and setting: as for `N#Cc1ccc(Sc2nc3c(N)ncn(CCc4ccccc4)c-3n2)cc1` [Example 20, 4-(6-amino-3-phenethyl-3H-purin-8-ylsulfanyl)-benzonitrile], the figure is 0%; as for `COc1ccc(OC)c(Sc2nc3c(N)ncn(CCc4ccc(S(=O)(=O)NC(C)(C)C)cc4)c-3n2)c1` [Example 276, 4-(2-{6-Amino-8-[(2,5-dimethoxyphenyl)thio]-3H-purin-3-yl}ethyl)-N-(tert-butyl)benzenesulfonamide], 0.0%; as for `N#Cc1cc2c(cc1Sc1nc3c(N)ncn(CCc4ccccc4)c-3n1)OCO2` [Example 321, 6-{[6-Amino-3-(2-phenylethyl)-3H-purin-8-yl]thio}-1,3-benzodioxole-5-carbonitrile], 49.0%.

The experiment is the same for the next values; noted with them: BODIPY-GM 10 nM, Hsp90 30 nM.
As for `CC1CC1C(=O)N1CCC(CCn2c(Sc3cc4c(cc3Br)OCO4)nc3c(N)ncnc32)CC1` (stereo not drawn) [Example 518, 8-[(6-Bromo-1,3-benzodioxol-5-yl)thio]-9-(2-{1-[(2-methylcyclopropyl)carbonyl]piperidin-4-yl}ethyl)-9 H-purin-6-amine], the half-maximal inhibitory concentration (IC50) was determined as 0.14 µM. Same read-out and setting: as for `N#Cc1ccc(Sc2nc3c(N)ncn(CCc4ccccc4)c-3n2)cc1` [Example 20, 4-(6-amino-3-phenethyl-3H-purin-8-ylsulfanyl)-benzonitrile], the figure is above 10 µM; as for `Nc1ncnc2c1nc(Sc1cc3c(cc1Br)OCO3)n2CCC1CCN(S(=O)(=O)C(F)(F)F)CC1` [Example 387, 8-[(6-Bromo-1,3-benzodioxol-5-yl)thio]-9-(2-{1-[(trifluoromethyl)sulfonyl]piperidin 4-yl}ethyl)-9H-purin-6-amine], above 8 µM; as for `Nc1ncnc2c1nc(Sc1cc(Cl)c(Cl)cc1Cl)n2CCc1ccccc1` [Example 259, 9-(2-Phenylethyl)-8-[(2,4,5-trichlorophenyl)thio]-9H-purin-6-amine], 12 µM. The compound `Nc1ncnc2c1nc(Sc1cccc(OC(F)F)c1)n2CCc1ccccc1` [Example 252, 8-{[3-(Difluoromethoxy)phenyl]thio}-9-(2-phenylethyl)-9H-purin-6-amine] came in with a half-maximal inhibitory concentration (IC50) above 25 µM.

Consider `Nc1ncnc2c1nc(Sc1cc3c(cc1Br)OCO3)n2CCNc1cccc2cccnc12` [Example 574, N-(2-{6-Amino-8-[(6-bromo-1,3-benzodioxol-5-yl)thio]-9 H-purin-9-yl}ethyl)quinolin-8-amine], for which the IC50 stood at 1.8 µM. Turning to `C[C@H](NC(=O)OC(C)(C)C)C(=O)N1CCC(CCn2c(Sc3cc4c(cc3Br)OCO4)nc3c(N)ncnc32)CC1` [Example 693, [(S)-2-(4-{2-[6-Amino-8-(6-bromo-benzo[1,3]dioxol-5-ylsulfanyl) -purin-9-yl]-ethyl}-piperidin-1-yl)-1-methyl-2-oxo-ethyl]-carbamic acid tert-butyl ester], the IC50 stood at 0.059 µM.

The compound `Nc1ncnc2c1nc(Sc1cc3c(cc1Br)OCO3)n2CCc1ccc(Cl)cc1F` [Example 39, 8-(6-Bromo-benzo[1,3]dioxol-5-ylsulfanyl)-9-[2-(4-chloro-2-fluorophenyl)-ethyl]-9H-purin-6-ylamine] yielded an IC50 of 0.23 µM. Regarding `Nc1ncnc2c1nc(Sc1cc3c(cc1Br)OCO3)n2CCC1CCCCN1CC(=O)O` (stereo not drawn) [Example 650, [2-(2-{6-amino-8-[(6-bromo-1,3-benzodioxol-5-yl)thio]-9H-purin-9-yl}ethyl)piperidin-1-yl]acetic acid], the IC50 was above 2 µM. Same read-out and setting: as for `Nc1ncnc2c1nc(Sc1cc3c(cc1Br)OCO3)n2CCc1ccc(F)cc1` [Example 249, 8-[(6-Bromo-1,3-benzodioxol-5-yl)thio]-9-[2-(4-fluorophenyl)ethyl]-9H-purin-6-amine], the figure is 0.1 µM; as for `COc1ccc(OC)c(Sc2nc3c(N)ncnc3n2CCc2ccccc2Br)c1` [Example 141, 9-[2-(2-Bromo-phenyl)-ethyl]-8-(2,5-dimethoxy-phenylsulfanyl)-9H-purin-6-ylamine], 0.04 µM.

Values taken from patent US7595401B2, “Therapeutic compounds and their use in cancer” (Myriad Pharmaceuticals, Inc., priority 2006, dated 2009).
